# Non-standard residues stand in square brackets, D forms with d. Residues, ends and D or L forms follow the SMILES beside them. No end group written: not given here.
# How the values were obtained:
# NOP receptor = test: NOP bias factor, G protein vs β-arrestin 2 (Black–Leff operational model); conditions: for BIAS FACTOR: supplementary CSV (molecular formula strings), repeats Tables 1–7 without confidence limits; for bias factor (CL95%), NOP: ΔΔlog(τ/KA) G protein minus β-arrestin 2, N/OFQ(1–13)-NH2 as standard unbiased ligand, positive = toward G protein, mean of at least five experiments
# Excerpt: The concentration–response curves of each compound were fitted to the Black–Leff operational model, described by Nagi and Pineyro[70] [drawing 3] where [A] is the agonist concentration, the maximal response of the system is given by Em, n is a fitting parameter for the slope, the affinity of the agonist is represented by the equilibrium dissociation constant of the agonist–receptor complex (KA), and the efficacy of the agonist is defined by τ. τ and KA are descriptive parameters of intrinsic efficacy and binding affinity and may be directly obtained by fitting the experimental data to the operational equation and can be expressed as “transduction coefficients” log(τ/KA). The relative efficiency of agonists producing activation of any pathways can thus be quantified with a “normalized” transduction coefficient, namely Δlog(τ/KA). Finally, the bias factors were calculated as difference between Δlog(τ/KA) values for a given agonist between the pathways (G protein and β-arrestin 2) [drawing 4]
# Bias factors are expressed as the mean of at least five independent experiments, and CL95% are indicated. Biased factor is considered to be statistically different from 0 when 0 is not included in CL95%. α values have been statistically analyzed with one-way analysis of variance (ANOVA) followed by the Dunnett post hoc test for multiple comparisons; P values less than 0.05 were considered to be statistically significant.
# [1] = biological target: T1, NOP receptor (NOP-RLuc/β-arrestin 2-RGFP) (Homo sapiens, UniProt P41146); test: NOP/β-arrestin 2 interaction, BRET assay in whole cells; type: cell-based; conditions: for NOP/β-arrestin 2 pEC50 (CL95%): BRET, whole HEK293 cells co-expressing NOP-RLuc/β-arrestin 2-RGFP, 100,000 cells/well, room temperature, mean of five independent experiments in duplicate, 95% confidence limits; for NOP/β-arrestin 2 α ± sem (intrinsic activity): Emax of ligand / Emax of N/OFQ(1–13)-NH2, mean ± sem of five experiments in duplicate; for NOP/β-arrestin 2 CR (concentration ratio): ratio between EC50 of the ligand and that of the standard agonist N/OFQ(1–13)-NH2
# T1 construct: expressed in transfected cells; host or cells: HEK293 (whole cells)
# T1 sequence (P41146 whole entry): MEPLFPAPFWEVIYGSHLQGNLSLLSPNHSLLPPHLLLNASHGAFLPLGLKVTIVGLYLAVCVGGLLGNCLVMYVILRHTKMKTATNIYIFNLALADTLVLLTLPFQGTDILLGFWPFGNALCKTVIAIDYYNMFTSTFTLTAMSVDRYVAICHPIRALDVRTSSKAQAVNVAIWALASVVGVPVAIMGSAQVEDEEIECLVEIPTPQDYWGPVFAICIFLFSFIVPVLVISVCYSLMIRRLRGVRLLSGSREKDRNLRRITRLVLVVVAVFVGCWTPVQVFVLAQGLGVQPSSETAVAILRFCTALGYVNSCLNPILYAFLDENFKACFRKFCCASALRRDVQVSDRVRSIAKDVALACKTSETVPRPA
# Procedure: (§1) For this study, human embryonic kidney (HEK293) cells, permanently co-expressing the different pairs of fusion proteins NOP-RLuc/Gβ1-RGFP and NOP-RLuc/β-arrestin 2-RGFP, and SH-SY5Y cells stably, co-expressing the different pairs of fusion proteins mu-RLuc/Gβ1-RGFP and mu-RLuc/β-arrestin 2-RGFP or delta-RLuc/Gβ1-RGFP and delta-RLuc/β-arrestin 2-RGFP, were used. Cells were prepared and cultured, as described previously.[19],[23] Cells were grown in Dulbecco’s modified Eagle’s medium (DMEM)/HAMS F12 (1:1) supplemented with 10% fetal bovine serum, penicillin G (100 units/mL), streptomycin (100 μg mL^–1), L-glutamine (2 mM), fungizone (1 μg mL^–1), geneticin (G418; 200 μg mL^–1), and hygromycin B (100 μg mL^–1) in a humidified atmosphere of 5% CO2 at 37 °C. For G protein experiments, enriched plasma membrane aliquots from transfected cells were prepared by differential centrifugation; cells were detached with phosphate buffered saline (PBS)/EDTA solution (1 mM, pH 7.4 NaOH), then, after 5 min 500g centrifugation, Dounce-homogenized (30 strokes) in cold homogenization buffer (tris(hydroxymethyl)aminomethane 5 mM, EGTA 1 mM, DTT 1 mM, pH 7.4 HCl) in the presence of sucrose (0.32 M). Three following centrifugations were performed at 10 min 1000g (4 °C), and the supernatants were kept. Two 20 min 24,000g (4 °C) subsequent centrifugations (the second in the absence of sucrose) were performed for separating enriched membranes that, after discarding the supernatant, were kept in ultrapure water at −80 °C.[67] The protein concentration in membrane preparations was determined using the QPRO-BCA kit (Cyanagen Srl, Bologna, IT) and the Ensight (PerkinElmer, Waltham, USA) in the spectrophotometer mode.
# (§2) Luminescence in membranes was recorded in 96-well untreated white opaque microplates, while in whole cells, it was recorded in 96-well sterile poly-D-lysine-coated white opaque microplates (PerkinElmer, Waltham, MA, USA) using the luminometer Victor 2030 (PerkinElmer, Waltham, MA, USA). For the determination of receptor/G protein interactions, membranes (3 μg of protein) prepared from cells co-expressing NOP (or mu or delta)/RLuc and Gβ1/RGFP were added to wells in DPBS. For the determination of receptor/β-arrestin 2 interactions, cells co-expressing NOP (or mu or delta)/RLuc and β-arrestin 2/RGFP were plated 24 h before the experiment in poly-D-lysine-treated plates (100,000 cells/well). The cells were prepared for the experiment substituting the medium with PBS with MgCl2 (0.5 mM) and CaCl2 (0.9 mM). Coelenterazine at a final concentration of 5 μM was injected 15 min prior to reading the cell plate. Different concentrations of ligands in 20 μL of PBS–BSA 0.01% were added and incubated 5 min before reading luminescence. […] The BRET ratio was measured 15 min after agonist injection. All experiments were performed at room temperature.
# (§3) The pharmacological terminology adopted in this paper is consistent with IUPHAR recommendations.[68] All data are expressed as the mean ± sem of five independent experiments made in duplicate. […] Ligand efficacy was expressed as intrinsic activity (α), calculated as the ratio between the Emax of the ligand and that of the standard agonist. Count per second (CPS) measured for the RGFP and RLuc light emitted using 510(10) and 460(25) filters (PerkinElmer, Waltham, MA), respectively, was used to calculate the BRET ratio. All data are expressed as the stimulated BRET ratio, that is, the ratio between CPS from RGFP and RLuc in the presence of ligands minus the BRET ratio in vehicle-treated wells. […] Concentration–response curves to agonists were fitted to the classical four-parameter logistic nonlinear regression model [drawing 1]
# (§4) Curves fitting were performed using PRISM 6.0 (GraphPad Software In., San Diego, USA).
# [2] = biological target: T2, NOP receptor (NOP-RLuc/Gβ1-RGFP) (Homo sapiens, UniProt P41146); test: NOP/G protein interaction, BRET assay in membranes; type: biochemical; conditions: for NOP/G protein pEC50 (CL95%): BRET, membranes (3 μg protein) from HEK293 cells co-expressing NOP-RLuc/Gβ1-RGFP, room temperature, mean of five independent experiments in duplicate, 95% confidence limits; for NOP/G protein α ± sem (intrinsic activity): Emax of ligand / Emax of N/OFQ(1–13)-NH2, mean ± sem of five experiments in duplicate; for NOP/G protein CR (concentration ratio): ratio between EC50 of the ligand and that of the standard agonist N/OFQ(1–13)-NH2
# T2 construct: expressed in transfected cells; host or cells: HEK293 (enriched plasma membranes)
# T2 sequence (P41146 whole entry): as above
# Procedure: as §1, §2, §3, §4
# [3] = biological target: N/OFQ peptide (NOP) receptor fused to Renilla luciferase (UniProt P41146)
# Chain of N/OFQ peptide (NOP) receptor fused to Renilla luciferase (P41146 whole entry, the tested form may be a part): as the sequence (P41146 whole entry) above
Molecule,BIAS FACTOR (NOP receptor),"bias factor (CL95%), NOP (NOP receptor)",NOP/β-arrestin 2 pEC50 (CL95%) [1],NOP/β-arrestin 2 α ± sem (intrinsic activity) [1],NOP/β-arrestin 2 CR (concentration ratio) [1],NOP/G protein pEC50 (CL95%) [2],NOP/G protein α ± sem (intrinsic activity) [2],NOP/G protein CR (concentration ratio) [2],"pEC50 for promoting the NOP/G protein interaction (BRET, membranes with NOP-RLuc and Gβ1-RGFP) [3]","pEC50 for promoting the NOP/β-arrestin 2 interaction (BRET, cells with NOP-RLuc and β-arrestin 2-RGFP) [3]",also measured
"C[C@H](NC(=O)CNC(=O)[C@@H](NC(=O)[C@H](Cc1ccccc1)NC(=O)CNC(=O)[C@@H](C)NC(=O)[C@@H](N)Cc1ccccc1)[C@@H](C)O)C(=O)N[C@@H](CCCNC(=N)N)C(=O)N[C@@H](CCCCN)C(=O)N[C@@H](CO)C(=O)N[C@@H](C)C(=O)N[C@@H](CCCNC(=N)N)C(=O)N[C@@H](CCCCN)C(N)=O [Compound 26, [D-Ala^2]N/OFQ(1–13)-NH2] (H-F[dA]GFTGARKSARK-NH2)",0.20,0.20 (−0.26–0.66),7.16 (6.94–7.34),0.95 ± 0.05,13,7.57 (7.28–7.86),1.03 ± 0.03,13,,,"less potent than N/OFQ(1–13)-NH2 / reduction of potency, NOP/G protein [2]: approximately 10 fold"
"FGGFTGARASARK-NH2 [Compound 8, [Ala^9]N/OFQ(1–13)-NH2]",-0.15,–0.15 (−0.79–0.49),7.77 (7.43–8.11),1.03 ± 0.07,3,8.14 (6.88–9.41),0.97 ± 0.04,5,,,
"FGGFTGARKAARK-NH2 [Compound 9, [Ala^10]N/OFQ(1–13)-NH2]",-0.08,–0.08 (−0.67–0.50),8.43 (7.91–8.95),1.00 ± 0.04,0.68,9.25 (7.82–10.68),0.94 ± 0.04,0.35,,,
"FGGFTGARKSAAK-NH2 [Compound 10, [Ala^12]N/OFQ(1–13)-NH2]",-0.15,–0.15 (−0.78–0.49),6.85 (6.57–7.14),0.99 ± 0.05,26,7.31 (6.41–8.22),0.91 ± 0.04,31,,,
"FGGFTGARKSARA-NH2 [Compound 11, [Ala^13]N/OFQ(1–13)-NH2]",-0.48,–0.48 (−1.14–0.18),7.88 (7.75–8.01),1.03 ± 0.05,2,7.91 (7.24–8.59),0.96 ± 0.06,8,,,
"LGGFTGARKSARK-NH2 [Compound 23, [Leu^1]N/OFQ(1–13)-NH2]",-0.08,–0.08 (−0.53–0.37),7.87 (7.69–8.04),1.04 ± 0.06,3,8.19 (7.88–8.51),1.06 ± 0.02,3,,,
[D-Phe^3]N/OFQ(1–13)-NH2 (FG[dF]FTGARKSARK-NH2; N-terminus assumed; SMILES C[C@H](NC(=O)CNC(=O)[C@@H](NC(=O)[C@H](Cc1ccccc1)NC(=O)[C@@H](Cc1ccccc1)NC(=O)CNC(=O)[C@@H](N)Cc1ccccc1)[C@@H](C)O)C(=O)N[C@@H](CCCNC(=N)N)C(=O)N[C@@H](CCCCN)C(=O)N[C@@H](CO)C(=O)N[C@@H](C)C(=O)N[C@@H](CCCNC(=N)N)C(=O)N[C@@H](CCCCN)C(N)=O) [Compound 25],,,inactive,,,inactive,,,,,
[DThr^5]N/OFQ(1–13)-NH2 [Compound 14],,,inactive,,,crc incomplete,,,,,
FGGFAGARKSARK-NH2 [[Ala^5]N/OFQ(1–13)-NH2],,,,,,,,,7.12 -log10 M,6.13 -log10 M,
FGGFTGARKSAAK-NH2 [[Ala^12]N/OFQ(1–13)-NH2],,,,,,,,,7.31 -log10 M,6.85 -log10 M,
FGGFTGARKSARA-NH2 [[Ala^13]N/OFQ(1–13)-NH2],,,,,,,,,7.91 -log10 M,7.88 -log10 M,
AGGFTGARKSARK-NH2 [[Ala^1]N/OFQ(1–13)-NH2],,,,,,,,,,,"concentration ratio (EC50 of the ligand / EC50 of N/OFQ(1–13)-NH2) for promoting the NOP/G protein interaction (BRET, membranes); concentration–response curve incomplete [3]: 700"
FGGFTGARKAARK-NH2 [[Ala^10]N/OFQ(1–13)-NH2],,,,,,,,,9.25 -log10 M,8.43 -log10 M,
FGGFTGAAKSARK-NH2 [[Ala^8]N/OFQ(1–13)-NH2],,,,,,,,,,,"concentration ratio (EC50 of the ligand / EC50 of N/OFQ(1–13)-NH2) for promoting the NOP/G protein interaction (BRET, membranes); concentration–response curve incomplete [3]: 1000"
FAGFTGARKSARK-NH2 [[Ala^2]N/OFQ(1–13)-NH2],,,,,,,,,6.36 -log10 M,,
FGGFTAARKSARK-NH2 [[Ala^6]N/OFQ(1–13)-NH2],,,,,,,,,7.66 -log10 M,7.1 -log10 M,
FGGFTGARASARK-NH2 [[Ala^9]N/OFQ(1–13)-NH2],,,,,,,,,8.14 -log10 M,7.77 -log10 M,

# Reference: article PMC8011926 (Journal of Medicinal Chemistry, 2020)
